The record followed here is patent US12486269B2 (Aconcagua Bio, Inc., priority 2024, dated 2025).

In experiment [1] the target is T1, COS-7/AMY3 (human calcitonin receptor (CTR) and RAMP3) (Homo sapiens, UniProt O60896+P30988).
T1 construct: expressed in transfected cells; host or cells: COS-7
In words: Amylin Receptor cAMP Assay II. In kind it is cell-based. The conditions noted are these: values marked **: Amylin Receptor cAMP Assay II; COS-7/AMY3 cells, cAMP dynamic 2 kit, 30 min; read-out: Amylin Receptor cAMP Stimulation Activity: EC50. The method in brief:
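Agonist-induced cAMP was quantified by HTRF ratio at 665/615 nm and expressed as % of the window from vehicle to MAX control. Stimulation lasted 30 min at 37 °C in HBSS/20 mM HEPES/0.5 mM IBMX/0.1% casein, using stable human CTR+RAMP3 (AMY3) COS-7 cells at 2000 per well.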

For experiment [2], the target named is T2, human calcitonin receptor (CTR) (Homo sapiens, UniProt P30988).
T2 construct: expressed in transfected cells; host or cells: COS-7 (COS7-human CTR Clone #2)
T2 sequence (P30988 25-474): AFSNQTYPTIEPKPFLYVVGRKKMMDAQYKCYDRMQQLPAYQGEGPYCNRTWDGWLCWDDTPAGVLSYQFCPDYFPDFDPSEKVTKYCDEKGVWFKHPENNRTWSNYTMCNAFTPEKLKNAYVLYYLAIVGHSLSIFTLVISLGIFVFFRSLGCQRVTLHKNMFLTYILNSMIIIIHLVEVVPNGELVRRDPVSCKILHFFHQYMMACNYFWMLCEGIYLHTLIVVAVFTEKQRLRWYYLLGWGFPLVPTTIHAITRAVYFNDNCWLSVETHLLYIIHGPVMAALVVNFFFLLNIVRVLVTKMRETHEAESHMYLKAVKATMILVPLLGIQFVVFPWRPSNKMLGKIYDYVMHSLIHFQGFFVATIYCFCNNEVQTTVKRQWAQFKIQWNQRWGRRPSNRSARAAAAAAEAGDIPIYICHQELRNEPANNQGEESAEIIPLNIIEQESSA
In words: Calcitonin Receptor (CTR) cAMP Assay. Particulars: COS7-human CTR Clone #2 stable cell line, cAMP dynamic 2 kit, 30 min; read-out: Calcitonin Receptor cAMP Stimulation Activity: EC50. In kind it is cell-based. The method, boiled down: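 cAMP accumulation was measured by HTRF cAMP dynamic 2 read at 665/615 nm, 1 h at room temperature, with results scaled between vehicle and positive control. Before detection, COS7-human CTR stable cells were stimulated 30 min at 37 °C with compound (4-fold dilutions) in IBMX-containing HBSS/HEPES/casein buffer.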

T1 sequence (O60896 24-148, one chain of several): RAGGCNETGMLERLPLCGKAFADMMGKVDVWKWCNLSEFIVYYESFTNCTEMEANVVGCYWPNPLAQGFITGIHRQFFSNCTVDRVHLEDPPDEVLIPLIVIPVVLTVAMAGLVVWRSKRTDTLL

Turning to `COc1c(F)ccc2c1CC[C@H]2Nc1nccc2cc(-c3c4c(nc(CCc5ccccc5F)c3-c3n[nH]c(=O)o3)C35CC(CN3C4=O)C5)sc12` [Compound 276, (R)-5-(4-(7-((5-fluoro-4-methoxy-2,3-dihydro-1H-inden-1-yl)amino)thieno[2,3-c]pyridin-2-yl)-2-(2-fluorophenethyl)-5-oxo-8,9-dihydro-5H,7H-8,9a-methanopyrido[2,3-a]pyrrolizin-3-yl)-1,3,4-oxadiazol-2(3H)-one], the EC50 in experiment [1] turned out to be 1.57 nM; in experiment [2], 0.0602 nM.

With `COc1c(F)ccc2c1CC[C@H]2Nc1nccc2cc(-c3c4c(nc(CCc5cccc(Cl)c5)c3-c3n[nH]c(=O)o3)C35CC(CN3C4=O)C5)sc12` [Compound 277, (R)-5-(2-(3-chlorophenethyl)-4-(7-((5-fluoro-4-methoxy-2,3-dihydro-1H-inden-1-yl)amino)thieno[2,3-c]pyridin-2-yl)-5-oxo-8,9-dihydro-5H,7H-8,9a-methanopyrido[2,3-a]pyrrolizin-3-yl)-1,3,4-oxadiazol-2(3H)-one], the 50% effective concentration (EC50) in experiment [1] was found to be 0.368 nM; in experiment [2], 0.0207 nM.

In the case of `COc1c(F)ccc2c1CC[C@H]2Nc1nccc2cc(-c3c4c(nc(CCc5ccccc5Cl)c3-c3n[nH]c(=O)o3)C35CC(CN3C4=O)C5)sc12` [Compound 278, (R)-5-(2-(2-chlorophenethyl)-4-(7-((5-fluoro-4-methoxy-2,3-dihydro-1H-inden-1-yl)amino)thieno[2,3-c]pyridin-2-yl)-5-oxo-8,9-dihydro-5H,7H-8,9a-methanopyrido[2,3-a]pyrrolizin-3-yl)-1,3,4-oxadiazol-2(3H)-one], the half-maximal effective concentration (EC50) in experiment [1] was 0.517 nM; in experiment [2], 0.0636 nM.

For the compound `O=C1c2c(nc(CCc3ccc(F)cc3)c(-c3n[nH]c(=O)o3)c2-c2cc3ccnc(N[C@@H]4CCc5c(F)cc(F)cc54)c3s2)C23CC(CN12)C3` [Compound 279, (R)-5-(4-(7-((4,6-difluoro-2,3-dihydro-1H-inden-1-yl)amino)thieno[2,3-c]pyridin-2-yl)-2-(4-fluorophenethyl)-5-oxo-5,7,8,9-tetrahydro-8,9a-methanopyrido[2,3-a]pyrrolizin-3-yl)-1,3,4-oxadiazol-2(3H)-one], the 50% effective concentration (EC50) in experiment [1] was determined as 0.318 nM; in experiment [2] it was 0.051 nM.

For the compound `O=C1c2c(nc(CCc3ccc(F)cc3)c(-c3n[nH]c(=O)o3)c2-c2cc3ccnc(N[C@@H]4CCc5cc(F)ccc54)c3s2)C23CC(CN12)C3` [Compound 280, (R)-5-(4-(7-((5-fluoro-2,3-dihydro-1H-inden-1-yl)amino)thieno[2,3-c]pyridin-2-yl)-2-(4-fluorophenethyl)-5-oxo-5,7,8,9-tetrahydro-8,9a-methanopyrido[2,3-a]pyrrolizin-3-yl)-1,3,4-oxadiazol-2(3H)-one], the concentration for a half-maximal effect (EC50) turned out to be 0.935 nM in experiment [1] and 0.114 nM in experiment [2].

Take `COc1cccc2c1CC(F)(F)[C@H]2Nc1nccc2cc(-c3c4c(nc(CCc5ccc(F)cc5)c3-c3n[nH]c(=O)o3)C35CC(CN3C4=O)C5)sc12` [Compound 281, (S)-5-(4-(7-((2,2-difluoro-4-methoxy-2,3-dihydro-1H-inden-1-yl)amino)thieno[2,3-c]pyridin-2-yl)-2-(4-fluorophenethyl)-5-oxo-5,7,8,9-tetrahydro-8,9a-methanopyrido[2,3-a]pyrrolizin-3-yl)-1,3,4-oxadiazol-2(3H)-one]: the EC50 was 0.733 nM in experiment [1] and 0.239 nM in experiment [2].

With `COc1c(F)ccc2c1CC(F)(F)[C@H]2Nc1nccc2cc(-c3c4c(nc(CCc5ccc(F)cc5)c3-c3n[nH]c(=O)o3)[C@@H]3CCCN3C4=O)sc12` [Compound 282, 5-((S)-2-(4-fluorophenethyl)-5-oxo-4-(7-(((S)-2,2,5-trifluoro-4-methoxy-2,3-dihydro-1H-inden-1-yl)amino)thieno[2,3-c]pyridin-2-yl)-7,8,9,9a-tetrahydro-5H-pyrido[2,3-a]pyrrolizin-3-yl)-1,3,4-oxadiazol-2(3H)-one], the EC50 in experiment [1] was 0.464 nM; in experiment [2] it was 0.0464 nM.

Turning to `COc1c(F)ccc2c1CC(F)(F)[C@H]2Nc1nccc2cc(-c3c4c(nc(CCc5ccc(F)cc5)c3-c3n[nH]c(=O)o3)C35CC(CN3C4=O)C5)sc12` [Compound 283, (S)-5-(2-(4-fluorophenethyl)-5-oxo-4-(7-((2,2,5-trifluoro-4-methoxy-2,3-dihydro-1H-inden-1-yl)amino)thieno[2,3-c]pyridin-2-yl)-5,7,8,9-tetrahydro-8,9a-methanopyrido[2,3-a]pyrrolizin-3-yl)-1,3,4-oxadiazol-2(3H)-one], the EC50 in experiment [1] worked out at 1.57 nM; in experiment [2], 0.0191 nM.

As to `COc1cccc2c1CC(F)(F)[C@H]2Nc1nccc2cc(-c3c4c(nc(CCc5ccc(F)cc5)c3-c3n[nH]c(=O)o3)[C@@H]3COCCN3C4=O)sc12` [Compound 284, (R)-4-(7-(((S)-2,2-difluoro-4-methoxy-2,3-dihydro-1H-inden-1-yl)amino)thieno[2,3-c]pyridin-2-yl)-2-(4-fluorophenethyl)-3-(5-oxo-4,5-dihydro-1,3,4-oxadiazol-2-yl)-7,8,10,10a-tetrahydro-5H-pyrido[2′,3′:3,4]pyrrolo[2,1-c][1,4]oxazin-5-one], the concentration giving a half-maximal response (EC50) in experiment [1] came out at 81.6 nM; in experiment [2], 4.23 nM.

Take `O=C1c2c(nc(CCc3ccc(F)cc3)c(-c3n[nH]c(=O)o3)c2-c2cc3ccnc(N[C@@H]4CCc5c4ccc(F)c5OC(F)F)c3s2)C23CC(CN12)C3` [Compound 285, (R)-5-(4-(7-((4-(difluoromethoxy)-5-fluoro-2,3-dihydro-1H-inden-1-yl)amino)thieno[2,3-c]pyridin-2-yl)-2-(4-fluorophenethyl)-5-oxo-5,7,8,9-tetrahydro-8,9a-methanopyrido[2,3-a]pyrrolizin-3-yl)-1,3,4-oxadiazol-2(3H)-one]: the half-maximal effective concentration (EC50) stood at 0.208 nM in experiment [1] and 0.0136 nM in experiment [2].

Take `COc1c(F)c(F)cc2c1CC[C@H]2Nc1nccc2cc(-c3c4c(nc(CCc5ccc(F)cc5)c3-c3n[nH]c(=O)o3)C35CC(CN3C4=O)C5)sc12` [Compound 286, (R)-5-(4-(7-((5,6-difluoro-4-methoxy-2,3-dihydro-1H-inden-1-yl)amino)thieno[2,3-c]pyridin-2-yl)-2-(4-fluorophenethyl)-5-oxo-8,9-dihydro-5H,7H-8,9a-methanopyrido[2,3-a]pyrrolizin-3-yl)-1,3,4-oxadiazol-2(3H)-one]: the results for the EC50 in experiment [1] and in experiment [2] were 0.175 nM and 0.00668 nM, respectively.

For `COc1c(F)ccc2c1CC[C@H]2Nc1nc(C(F)F)cc2cc(-c3c4c(nc(CCc5ccc(F)cc5)c3-c3n[nH]c(=O)o3)C35CC(CN3C4=O)C5)sc12` [Compound 287, (R)-5-(4-(5-(difluoromethyl)-7-((5-fluoro-4-methoxy-2,3-dihydro-1H-inden-1-yl)amino)thieno[2,3-c]pyridin-2-yl)-2-(4-fluorophenethyl)-5-oxo-8,9-dihydro-5H,7H-8,9a-methanopyrido[2,3-a]pyrrolizin-3-yl)-1,3,4-oxadiazol-2(3H)-one], the figures for the EC50 in experiment [1] and in experiment [2] were 0.35 nM and 0.0178 nM, respectively.

`COc1c(F)cc(F)c2c1CC[C@H]2Nc1nccc2cc(-c3c4c(nc(CCc5ccc(F)cc5)c3-c3n[nH]c(=O)o3)C35CC(CN3C4=O)C5)sc12` [Compound 288, (R)-5-(4-(7-((5,7-difluoro-4-methoxy-2,3-dihydro-1H-inden-1-yl)amino)thieno[2,3-c]pyridin-2-yl)-2-(4-fluorophenethyl)-5-oxo-8,9-dihydro-5H,7H-8,9a-methanopyrido[2,3-a]pyrrolizin-3-yl)-1,3,4-oxadiazol-2(3H)-one]: the half-maximal effective concentration (EC50) was 1.59 nM in experiment [1] and 0.0436 nM in experiment [2].

As for `COc1c(Cl)cc2c(c1F)CC[C@H]2Nc1nccc2cc(-c3c4c(nc(CCc5ccc(F)cc5)c3-c3n[nH]c(=O)o3)C35CC(CN3C4=O)C5)sc12` [Compound 289, (R)-5-(4-(7-((6-chloro-4-fluoro-5-methoxy-2,3-dihydro-1H-inden-1-yl)amino)thieno[2,3-c]pyridin-2-yl)-2-(4-fluorophenethyl)-5-oxo-5,7,8,9-tetrahydro-8,9a-methanopyrido[2,3-a]pyrrolizin-3-yl)-1,3,4-oxadiazol-2(3H)-one], the EC50 in experiment [1] amounted to 0.54 nM; in experiment [2] it was 0.0645 nM.

Turning to `COc1c(F)ccc2c1CC(F)(F)[C@@H]2Nc1nccc2cc(-c3c4c(nc(CCc5ccc(F)cc5)c3-c3n[nH]c(=O)o3)[C@@H]3CCCN3C4=O)sc12` [Compound 290, 5-((S)-2-(4-fluorophenethyl)-5-oxo-4-(7-(((R)-2,2,5-trifluoro-4-methoxy-2,3-dihydro-1H-inden-1-yl)amino)thieno[2,3-c]pyridin-2-yl)-7,8,9,9a-tetrahydro-5H-pyrido[2,3-a]pyrrolizin-3-yl)-1,3,4-oxadiazol-2(3H)-one], the EC50 was determined as 1640 nM in experiment [1] and 17.6 nM in experiment [2].

As usually defined, the EC50 is the concentration giving half of the maximal effect.
